Laboratory results taken from patent US20040122089A1, “Novel eicosanoid analgesics” (priority 2001, published 2004).
Like-named read-outs stand apart in the source and are kept apart here.

Experiments:
AMT = format: cell-based, rat; conditions: [14C]AEA uptake, RBL-2H3 cells; read-out: AEA transport (IC50)
Method: AEA. Cells were incubated with [^14C] AEA for 5 min at 37° C., in the presence or absence of varying concentrations of the inhibitors. Residual [^14C] AEA in the incubation media after extraction with CHCl3/CH3OH 2:1 (by vol.), determined by scintillation counting of the lyophilized organic phase, was used as a measure of the AEA that was taken up by cells.
(§1) CP55940 from whole rat brain membranes.

FAAH = biological target: T1, FAAH (Rattus norvegicus, UniProt P97612); test: Fatty acid amide hydrolase assay, rat brain membranes; format: biochemical
T1 construct: membranes prepared from frozen brains of CD rats (Charles River, France); from tissue; host or cells: brain membranes of CD rats
T1 sequence (P97612 1-579): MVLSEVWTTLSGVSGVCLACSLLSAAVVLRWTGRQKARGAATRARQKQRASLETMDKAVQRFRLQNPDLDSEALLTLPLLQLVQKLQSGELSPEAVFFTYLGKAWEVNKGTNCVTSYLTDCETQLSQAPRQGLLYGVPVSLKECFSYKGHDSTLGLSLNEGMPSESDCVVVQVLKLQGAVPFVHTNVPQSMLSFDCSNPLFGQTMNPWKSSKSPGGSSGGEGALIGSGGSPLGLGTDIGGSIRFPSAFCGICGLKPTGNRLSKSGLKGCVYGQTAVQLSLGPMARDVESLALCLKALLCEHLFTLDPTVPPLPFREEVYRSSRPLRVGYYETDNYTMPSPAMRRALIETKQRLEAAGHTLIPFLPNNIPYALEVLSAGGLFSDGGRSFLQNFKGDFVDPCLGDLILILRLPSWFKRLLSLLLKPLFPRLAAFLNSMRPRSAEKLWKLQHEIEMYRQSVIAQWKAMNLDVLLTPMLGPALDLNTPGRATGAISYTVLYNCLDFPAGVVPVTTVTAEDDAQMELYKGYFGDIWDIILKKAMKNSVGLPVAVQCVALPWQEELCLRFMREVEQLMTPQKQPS
Method: Fatty acid amide hydrolase assay—The effect of compounds on the enzymatic hydrolysis of AEA was studied using membranes prepared from frozen brains of CD rats (Charles River, France), incubated with the test compounds and [^14C] AEA (9 μM) in 50 mM Tris-HCl, pH 9, for 30 min at 37° C. [^14C] Ethanolamine produced from [^14C] AEA hydrolysis was measured by scintillation counting of the aqueous phase after extraction of the incubation mixture with 2 volumes of CHCl3/CH3OH 2:1 (by vol.).
as §1

mice [1] = test: Mouse tetrad of behavioral tests, i.v. (Example 3); format: in vivo
Method: (§2) The analogs were administered to mice by tail-vein injection and evaluated for their ability to produce hypomotility, hypothermia, and antinociception. These pharmacological measures were determined in the same mouse at a time when maximal activity was present. […] A 10-sec maximum latency was used. Antinociception was expressed as % MPE as described below.
Data Analysis—For production of hypomotility and hypothermia, the data were expressed as a percentage of control activity and change in temperature, respectively. Antinociception was calculated according to the following equation.
% MPE=−((test latency-control latency)/(10s-control latency))×100
At least six animals were treated with each dose-response relationships could be determined for each analog. ED50 values were determined from least-squares unweighted linear regression analysis of log dose-response plots.
The ED50 (milligrams per kilogram, i.v.) does for inhibition of sector crossings (spontaneous activity) in an open field, antinociception (delay in seconds in the tail-flick response), decrease of rectal temperature in degrees Celsius, and induction of time spent in immobility on a ring are shown. Data are means (and ranges) of N>six animals.

mice [2] = test: SR141716A pre-treatment before compounds in spontaneous activity and tail-flick tests in mice; format: in vivo, mouse; conditions: for effect of SR141716A pre-treatment on the compound's effects in the tetrad tests: SR141716A 3 mg/kg i.v., 10 min pre-treatment; for Spontaneous Activity (Beam Interuptions), SR14176a + comp / Tail-Flick Latency (% MPE), SR14176a + comp: SR14176A 3 mg/kg i.v. 10 min before
Method: as §2
Data are means ±S.E. of n≧six animals.

CB1 receptors [3] = biological target: T2, CB1 receptors (Rattus norvegicus, UniProt P20272); test: Agonist-stimulated [35S]GTPγS binding, rat hippocampal membranes
T2 sequence (P20272 whole entry): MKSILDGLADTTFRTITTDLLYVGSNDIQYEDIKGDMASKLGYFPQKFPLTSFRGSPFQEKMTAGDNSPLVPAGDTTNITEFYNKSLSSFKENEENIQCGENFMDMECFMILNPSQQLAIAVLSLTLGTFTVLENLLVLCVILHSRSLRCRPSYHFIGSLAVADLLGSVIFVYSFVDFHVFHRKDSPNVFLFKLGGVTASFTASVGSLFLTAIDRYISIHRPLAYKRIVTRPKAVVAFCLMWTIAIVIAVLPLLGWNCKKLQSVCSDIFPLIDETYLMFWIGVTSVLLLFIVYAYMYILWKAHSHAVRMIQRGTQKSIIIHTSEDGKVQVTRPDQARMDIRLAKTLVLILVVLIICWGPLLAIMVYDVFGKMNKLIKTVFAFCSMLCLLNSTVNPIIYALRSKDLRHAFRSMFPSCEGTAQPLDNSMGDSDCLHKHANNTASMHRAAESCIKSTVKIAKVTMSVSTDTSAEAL

human VR1 receptor = human VR1 receptor (Homo sapiens, UniProt Q8NER1); test: Cytosolic calcium concentration assay in HEK-hVR1 cells (Example 3)
Sequence of human VR1 receptor (Q8NER1 whole entry): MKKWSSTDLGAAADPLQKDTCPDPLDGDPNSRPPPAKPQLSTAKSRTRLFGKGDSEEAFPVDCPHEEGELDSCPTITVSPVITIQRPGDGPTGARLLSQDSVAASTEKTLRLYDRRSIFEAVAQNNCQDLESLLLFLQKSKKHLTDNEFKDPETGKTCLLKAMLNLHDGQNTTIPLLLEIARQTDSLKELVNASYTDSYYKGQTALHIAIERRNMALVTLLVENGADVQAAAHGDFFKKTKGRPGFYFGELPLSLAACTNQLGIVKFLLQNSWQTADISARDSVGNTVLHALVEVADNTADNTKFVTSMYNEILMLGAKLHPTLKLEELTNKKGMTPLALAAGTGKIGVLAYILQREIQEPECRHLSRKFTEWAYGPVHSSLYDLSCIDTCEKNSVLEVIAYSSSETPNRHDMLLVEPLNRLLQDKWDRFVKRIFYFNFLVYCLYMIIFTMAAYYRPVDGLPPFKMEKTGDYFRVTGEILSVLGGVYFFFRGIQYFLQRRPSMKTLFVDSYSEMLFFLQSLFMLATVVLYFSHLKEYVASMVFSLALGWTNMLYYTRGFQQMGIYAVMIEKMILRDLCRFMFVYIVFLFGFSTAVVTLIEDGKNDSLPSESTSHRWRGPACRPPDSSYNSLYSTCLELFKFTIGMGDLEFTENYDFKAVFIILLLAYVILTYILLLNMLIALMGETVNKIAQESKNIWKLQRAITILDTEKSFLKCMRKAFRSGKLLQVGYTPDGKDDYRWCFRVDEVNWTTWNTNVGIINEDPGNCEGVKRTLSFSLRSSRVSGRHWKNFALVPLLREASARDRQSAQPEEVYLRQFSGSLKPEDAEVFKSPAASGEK

CB1 receptors [4] = biological target: T2, CB1 receptors; test: CB1 receptor binding, [3H]CP55940, whole rat brain membranes (Example 3)
[5] = tested on: anandamide membrane transporter (AMT); conditions: RBL-2H3 cells; read-out: AMT IC50 (previously reported); cited from earlier work
mice [6] = conditions: cited from earlier work
rat or human VR1 [7] = conditions: cited from earlier work
rat or human VR1 [8] = biological target: T3, rat or human VR1 (UniProt Q8NER1); conditions: Xenopus oocytes or HEK cells over-expressing rat or human VR1; read-out: VR1 EC50 (literature); cited from earlier work
T3 construct: other: Xenopus oocytes or HEK cells over-expressing rat or human VR1

CCCCC/C=C\C/C=C\C/C=C\C/C=C\CCCC(=O)NCc1ccc(O)c(Cl)c1 [Compound O-2094]
IC50 (AMT): 19 ± 2.1 µM | IC50 (FAAH): 4.5 ± 0.7 µM | ED50 (mice [1]; Mus musculus, iv, read-out: ED50 values, range over the four parameters of the mouse 'tetrad'): 0.49 to 3.77 mg/kg | Average ED50 (mice [1]; i.v.): 1.68 milligrams per kilogram | R.I. ED50 (mice [1]; i.v., mean (range)): 1.93 (1.56-2.39) milligrams per kilogram | Rectal temp. ED50 (mice [1]; i.v., mean (range)): 3.77 (1.21-11.76) milligrams per kilogram | Spontan. activity ED50 (mice [1]; i.v., mean (range)): 0.52 (0.38-0.71) milligrams per kilogram | Tail Flick ED50 (mice [1]; i.v., mean (range)): 0.49 (0.35-0.67) milligrams per kilogram | effect of SR141716A pre-treatment on the compound's effects in the tetrad tests (mice [2]): not affected | effect of SR141716A pre-treatment on the compound's effects in the tetrad tests (mice [2]; listed as 0-2094): No inhibitory effect | Spontaneous Activity (Beam Interuptions), vehicle + compound (mice [2]; dose 1 mg/kg i.v.): 83 ± 17 Beam Interuptions | Tail-Flick Latency (% MPE), vehicle + compound (mice [2]; dose 1 mg/kg i.v.): 94 ± 5 % MPE | Spontaneous Activity (Beam Interuptions), SR14176a + comp (mice [2]; dose 1 mg/kg i.v.): 116 ± 21 Beam Interuptions | Tail-Flick Latency (% MPE), SR14176a + comp (mice [2]; dose 1 mg/kg i.v.): 100 % MPE | Spontaneous Activity (Beam Interuptions), vehicle + compound (mice [2]; dose 3 mg/kg i.v.): 118 ± 16 Beam Interuptions | Tail-Flick Latency (% MPE), vehicle + compound (mice [2]; dose 3 mg/kg i.v.): 100 % MPE | Spontaneous Activity (Beam Interuptions), SR14176a + comp (mice [2]; dose 3 mg/kg i.v.): 52 ± 19 Beam Interuptions | Tail-Flick Latency (% MPE), SR14176a + comp (mice [2]; dose 3 mg/kg i.v.): 96 ± 4 % MPE | EC50 (CB1 receptors [3]): 131 nM | activity in the GTPγS binding assay (CB1 receptors [3]): low efficacy partial agonist | Emax (CB1 receptors [3]; read-out: GTPγS binding (Emax)): 15% | EC50 (human VR1 receptor): 10 nM | Emax (human VR1 receptor; read-out: hVR1 efficacy (maximal effect, in parentheses)): 63.5% | Ki (CB1 receptors [4]; read-out: CB1 affinity Ki): 275 ± 16 nM | Ki (CB1 receptors [4]; read-out: CB1 affinity Ki, listed as 0-2094): 274 ± 19 nM

CCCCC/C=C\C/C=C\C/C=C\C/C=C\CCCC(=O)N[C@H](C)CO [Met-AEA, (R)-1′-Methyl-2′-hydroxy-ethyl-arachidonamide]
IC50 [5]: 24.5 µM

CCCCC/C=C\C/C=C\C/C=C\C/C=C\CCCC(=O)NCc1ccc(O)c(OC)c1 [arvanil, N-[3-methoxy-4-hydroxy-benzyl]-arachidonamide]
IC50 [5]: 3.6 µM | ED50 in the 'tetrad' (mice [6]): 0.085 mg/kg | fold more potent at VR1 than CB1 receptors (rat or human VR1 [7]): approximately 500 fold

CCCCC/C=C\C/C=C\C/C=C\C/C=C\CCCC(=O)NCCO [AEA, arachidonoylethanolamide]
EC50 (rat or human VR1 [8]): 1000 to 5000 nM
